# Where “and” joins values, the source holds several entries; their conditions need not be identical. Identical values can stand only once. Like-named read-outs stand apart in the source and are kept apart here. Starred links: 1 amine or outer side, 2 acyl side, 3 side chain; linkers in the order of their positions; H or OH if unused. Positions of bridges follow the written chain, without caps; N, C: chain ends. Non-standard residues stand in square brackets, D forms with d. Residues, ends and D or L forms follow the SMILES beside them. *: point of attachment. hTyr(3S-OH,4S-OH,3'-OSO3H) = N[C@H](C(=O)O)[C@H](O)[C@@H](O)c1ccc(O)c(OS(=O)(=O)O)c1; Orn(4R-OH,5R-OH) = O=C([C@H](C[C@@H](O)[C@@H](O)N[*:3])N[*:1])[*:2]; Pro(3S-OH,4S-Me) = C[C@H]1CN[C@H](C(=O)O)[C@H]1O; X1 = CCCCCOc1ccc(-c2cc(-c3ccc(C(=O)*)cc3)no2)cc1; Gln(3R-OH) = NC(=O)C[C@@H](O)[C@H](N)C(=O)O; Hyp = O=C(O)[C@@H]1C[C@@H](O)CN1
# Tests used:
# [1] = tested on: Cryptococcus deuterogattii CBS7750 VGII; Serotype B; assay: Antifungal MIC assay, extended panel; type: cell-based; settings: extended panel, second batch; ≥80 or ≥50% inhibition
# Experimental: (§1) For the fungal assays, both fungi (yeast) strains were cultured for 3 days on Yeast Extract-Peptone Dextrose (YPD; Becton Dickinson 242720) agar at 30 °C. A yeast suspension of 1 × 10^6 to 5 × 10^6 CFU/mL (as determined by OD530) was prepared from five colonies from the agar plates, subsequently diluted with Yeast Nitrogen Base media (YNB; Becton Dickinson 233520), and added to each well of the compound containing plates (384-well plates, NBS; Corning CLS3640), giving a final cell density of 2.5 × 10^3 CFU/mL and a total volume of 50 μL. Plates were covered and incubated at 35 °C for 36 h without shaking. […] MIC values were recorded as the lowest concentration at which the growth was inhibited by ≥80%, equivalent to ″optically clear-to-slightly hazy″ or MIC score of 0–1 as per CLSI guidelines M27 Reference Method for Broth Dilution Antifungal Susceptibility Testing of Yeasts. […] Fluconazole (Sigma F8929) was used as internal control on each plate for all strains. All compounds were tested as two technical replicates in two to four independent biological assays, n = 4–8 final data.
# [2] = tested on: Candida glabrata ATCC 90030 NCCLS 84; assay: Antifungal MIC assay, extended panel; type: cell-based; settings: extended panel, second batch; ≥80 or ≥50% inhibition
# Experimental: as §1
# [3] = tested on: Cryptococcus deuterogattii ATCC 32609 VGII; assay: Antifungal MIC assay, extended panel; type: cell-based; settings: extended panel, second batch; ≥80 or ≥50% inhibition
# Experimental: as §1
# [4] = tested on: Candida tropicalis ATCC 750; assay: Antifungal MIC assay, extended panel; type: cell-based; settings: extended panel, second batch; ≥80 or ≥50% inhibition
# Experimental: as §1
# [5] = tested on: Cryptococcus neoformans H99 ATCC 208821 type strain; assay: Antifungal MIC assay; type: cell-based; settings: for MIC Cn: initial CO-ADD dose-response screening, ≥80% growth inhibition
# How it was run: (§2)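 YNB broth; inoculum 2.5 × 10^3 CFU/mL final; 35 °C, 36 h, no shaking; MIC at ≥80% inhibition (CLSI M27 score 0–1); n = 4–8.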
# [6] = tested on: Escherichia coli ATCC 25922 FDA control strain; assay: CO-ADD antibacterial MIC assay; type: cell-based; settings: initial CO-ADD dose-response screening; ≥80% growth inhibition
# Experimental: (§3) For the all the bacterial assays, each bacterial strain was cultured in cation-adjusted Mueller Hinton broth (CAMHB; Bacto Laboratories 212322) at 37 °C overnight. A sample of each culture was then diluted 40-fold in fresh CAMHB and incubated at 37 °C for 1.5–3 h. The resultant mid-log phase cultures were diluted with CAMHB (CFU/mL measured by OD600) and then added to each well of the compound-containing plates (384-well non-binding surface (NBS) plates; Corning CLS3640), giving a cell density of 5 × 10^5 CFU/mL and a total volume of 50 μL. Plates were covered and incubated at 37 °C for 18 h without shaking. Inhibition of bacterial growth was determined by measuring the absorbance at 600 nm (OD600) using media only as negative control and bacteria without inhibitors as positive control. MIC values were determined as the lowest concentration at which the growth was inhibited by ≥80% (equivalent to no visible growth by the eye). Colistin sulfate (Sigma C4461) and vancomycin HCl (Sigma 861987) were used as internal controls on each plate for Gram-negative and Gram-positive bacteria, respectively. All compounds were tested as two technical replicates in two independent biological assays, n = 4 final data.
# [7] = tested on: methicillin-resistant Staphylococcus aureus ATCC 43300; assay: CO-ADD antibacterial MIC assay; type: cell-based; settings: initial CO-ADD dose-response screening; ≥80% growth inhibition
# Experimental: as §3
# [8] = tested on: Acinetobacter baumannii ATCC 19606 type strain; assay: CO-ADD antibacterial MIC assay; type: cell-based; settings: initial CO-ADD dose-response screening; ≥80% growth inhibition
# Experimental: as §3
# [9] = tested on: Pseudomonas aeruginosa ATCC 27853 QC control strain; assay: CO-ADD antibacterial MIC assay; type: cell-based; settings: initial CO-ADD dose-response screening; ≥80% growth inhibition
# Experimental: as §3
# [10] = tested on: Candida auris CBS10913 JCM 15448; assay: Antifungal MIC assay, extended panel; type: cell-based; settings: for MIC: read-out: MIC* Candida auris CBS10913
# Experimental: as §1, with “values were recorded as the lowest concentration at which the growth was inhibited by ≥80%, equivalent to ″optically clear-to-slightly hazy″ or MIC score of 0–1 as per CLSI guidelines M27” left out
# [11] = tested on: Candida auris CBS12373 KCTC 17810; assay: Antifungal MIC assay, extended panel; type: cell-based; settings: for MIC: read-out: MIC* Candida auris CBS12373
# Experimental: as §1, with “values were recorded as the lowest concentration at which the growth was inhibited by ≥80%, equivalent to ″optically clear-to-slightly hazy″ or MIC score of 0–1 as per CLSI guidelines M27” left out
# human red blood cells = type: cell-based
# Experimental: Human whole blood (Australian Red Cross) was washed three times with 3 vol of 0.9% NaCl and resuspended in a concentration of 0.5 × 10^8 cells/mL, determined by a manual cell count in a Neubauer hemocytometer. […] After incubation, the plates were centrifuged at 1000g for 10 min to pellet cells and debris; 25 μL of the supernatant was then transferred to reading plates (384-well, polystyrene plated (PS), Corning CLS3680), with hemolysis determined by measuring the supernatant absorbance at […] (OD405) using cells without inhibitors as negative control and cells with 1% Triton X-100 (Sigma T8787) as positive control. […] Melittin (Sigma M2272) was used as internal control on each plate.
# [12] = tested on: HEK-293 human embryonic kidney cells ATCC CRL-1573
# Experimental: The cells were incubated together with the compounds for 20 h at 37 °C in 5% CO2. […] Tamoxifen (Sigma T5648) was used as internal control on each plate.
# [13] = tested on: Candida albicans ATCC 90028 NCCLS11; assay: Antifungal MIC assay; type: cell-based; settings: for MIC Ca: initial CO-ADD dose-response screening, ≥80% growth inhibition
# How it was run: as §2
# [14] = tested on: Cryptococcus deuterogattii CBS7750 VGII; Serotype B; assay: Antifungal MIC assay, extended panel; type: cell-based
# [15] = tested on: Candida glabrata ATCC 90030 NCCLS 84; assay: Antifungal MIC assay, extended panel; type: cell-based
# [16] = tested on: Cryptococcus deuterogattii ATCC 32609 VGII; assay: Antifungal MIC assay, extended panel; type: cell-based
# [17] = tested on: Candida tropicalis ATCC 750; assay: Antifungal MIC assay, extended panel; type: cell-based
# [18] = extended panel, second batch, ≥80 or ≥50% inhibition
# [19] = initial CO-ADD screening, 1 h, 10% hemolysis
# [20] = ranges obtained upon retesting, new batch
# [21] = extended panel, 50% inhibition, MIC score 2
structure (smiles),measurement,setting,value
C1=CCCC=CCC1.[Cl][Pd][Cl] [Pd1],MIC,[1],≤0.78 µM
same,MIC,[2],3.12 µM
same,MIC Cryptococcus deuterogattii ATCC 32609,[3],1.56 to 3.12 µM
same,MIC,[4],6.25 µM
same,MIC,"[5]; extended panel, second batch, ≥80 or ≥50% inhibition, read-out: MIC* Cryptococcus neoformans ATCC 208821",≤0.78 µM
same,MIC Cn,[5],0.63 µM
same,MIC Ec,[6],>20 µM
same,MIC MRSA (Sa),[7],>20 µM
same,MIC Ab,[8],>20 µM
same,MIC Pa,[9],>20 µM
same,MIC,[10]; [18],≤0.78 µM
same,MIC,[11]; [18],≤0.78 µM
same,RBC HC10,human red blood cells; [19],>20 µM
same,RBC HC10,human red blood cells; [20],10 µM
same,CC50,"[12]; read-out: HEK293 CC50, ranges obtained upon retesting, new batch",> 100 µM
same,CC50,"[12]; read-out: HEK CC50, initial CO-ADD screening, 20 h",> 20 µM
same,cytotoxicity: none up to stated concentration,[12]; retest,> 100 µM
same,MIC,"[13]; extended panel, second batch, ≥80 or ≥50% inhibition, read-out: MIC* Candida albicans ATCC 90028",3.12 µM
same,MIC Ca,[13],1.25 µM
Cc1c(C)c(-c2ccc(-c3ccccc3)cc2)[c-](C)c1C.Cc1ccccc1NC1=[NH+][Ir]([Cl])[NH]C(NS(=O)(=O)c2ccc([N+](=O)[O-])cc2)=N1 [Ir2],MIC50 Cryptococcus deuterogattii CBS7750,[14]; [21],0.012 to 0.024 µM
same,MIC,[1],0.024 µM
same,MIC,[2],0.098 µM
same,MIC Cryptococcus deuterogattii ATCC 32609,[3],0.098 to 0.195 µM
same,MIC Candida tropicalis ATCC 750,[4],0.098 to 0.195 µM
same,MIC50 Candida glabrata ATCC 90030,[15]; [21],0.098 to 0.195 µM
same,MIC Cryptococcus neoformans ATCC 208821,[5]; [18],0.024 to 0.049 µM
same,MIC50 Cryptococcus neoformans ATCC 208821,[5]; [21],0.024 to 0.098 µM
same,MIC Cn,[5],2 µg/mL
same,MIC Ec,[6],>32 µg/mL
same,MIC MRSA (Sa),[7],1 µg/mL
same,MIC Ab,[8],>32 µg/mL
same,MIC Pa,[9],>32 µg/mL
same,MIC50 Cryptococcus deuterogattii ATCC 32609,[16]; [21],0.098 to 0.195 µM
same,MIC50 Candida tropicalis ATCC 750,[17]; [21],0.098 to 0.195 µM
same,MIC Candida auris CBS10913,[10]; [18],0.049 to 0.098 µM
same,MIC50 Candida auris CBS10913,[10]; [21],0.049 to 0.098 µM
same,MIC,[11]; [18],0.024 µM
same,MIC50 Candida auris CBS12373,[11]; [21],0.024 µM
same,RBC HC10,human red blood cells; [19],>32 µg/mL
same,RBC HC10,human red blood cells; [20],2 to 76 µM
same,HEK CC50,"[12]; initial CO-ADD screening, 20 h",>32 µg/mL
same,MIC Candida albicans ATCC 90028,[13]; [18],0.049 to 0.098 µM
same,MIC50 Candida albicans ATCC 90028,[13]; [21],0.049 to 0.098 µM
same,MIC Ca,[13],2 µg/mL
"CCCCCOc1ccc(-c2cc(-c3ccc(C(=O)N[C@H]4C[C@@H](O)[C@@H](O)NC(=O)[C@@H]5[C@@H](O)[C@@H](C)CN5C(=O)[C@H]([C@H](O)CC(N)=O)NC(=O)[C@H]([C@H](O)[C@@H](O)c5ccc(O)c(OS(=O)(=O)O)c5)NC(=O)[C@@H]5C[C@@H](O)CN5C(=O)[C@H]([C@@H](C)O)NC4=O)cc3)no2)cc1 [Micafungin, reference compound] (X1-[Orn(4R-OH,5R-OH)]T[Hyp][hTyr(3S-OH,4S-OH,3'-OSO3H)][Gln(3R-OH)][Pro(3S-OH,4S-Me)]; lactam 1-C)",MIC,"[14]; Cryptococcus deuterogattii, CBS7750, read-out: MIC* Cryptococcus deuterogattii CBS7750",0.06 µg/mL to 0.125 µg/mL and 0.07 µM to 0.139 µM
same,MIC,"[15]; Nakaseomyces glabratus, ATCC90030, read-out: MIC* Candida glabrata ATCC 90030",4 µg/mL to 32 µg/mL and 4.45 µM to 35.7 µM
same,MIC,"[5]; Cryptococcus neoformans, ATCC208821, read-out: MIC* Cryptococcus neoformans ATCC 208821",0.015 µg/mL to 0.063 µg/mL and 0.017 µM to 0.07 µM
same,MIC,"[16]; Cryptococcus deuterogattii, ATCC32609, read-out: MIC* Cryptococcus deuterogattii ATCC 32609",0.016 µg/mL to 0.125 µg/mL and 0.017 µM to 0.139 µM
same,MIC,"[17]; Candida tropicalis, ATCC750, read-out: MIC* Candida tropicalis ATCC 750",0.008 µg/mL to 0.063 µg/mL and 0.009 µM to 0.07 µM
same,MIC,[10]; Candidozyma auris,≤ 0.001 µg/mL and ≤ 0.0014 µM
same,MIC,[11]; Candidozyma auris,2 µg/mL and 2.23 µM
same,MIC,"[13]; Candida albicans, ATCC90028, read-out: MIC* Candida albicans ATCC 90028",≤ 0.0005 µg/mL and ≤ 0.0007 µM

# Source: publication PMC9597602, “Metal Complexes as Antifungals? From a Crowd-Sourced Compound Library to the First In Vivo Experiments” (JACS Au, 2022)
